Reference: PubChem BioAssay (NCI)
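Compound exposure: 48 hours, 5 concentrations, 96-well plates. TGI: concentration producing complete growth inhibition.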

How the values were obtained:
Assay in all cases: NCI tumour cell line growth inhibition, 48 h
LOX IMVI melanoma = system: LOX IMVI melanoma
OVCAR-8 ovarian = system: OVCAR-8 ovarian
MCF7 breast = system: MCF7 breast
XF 498 CNS = system: XF 498 CNS
SN12C renal = system: SN12C renal
DLD-1 colon = system: DLD-1 colon
HT29 colon = system: HT29 colon
HCT-116 colon = system: HCT-116 colon
SNB-19 CNS = system: SNB-19 CNS
HCT-15 colon = system: HCT-15 colon
DMS 114 small cell lung = system: DMS 114 small cell lung
NCI-H226 lung = system: NCI-H226 lung
HOP-18 NSCLC = system: HOP-18 NSCLC
KM12 colon = system: KM12 colon
COLO 205 colon = system: COLO 205 colon
K-562 leukemia = system: K-562 leukemia
OVCAR-3 ovarian = system: OVCAR-3 ovarian
SK-MEL-2 melanoma = system: SK-MEL-2 melanoma
UO-31 renal = system: UO-31 renal
A498 renal = system: A498 renal
NCI/ADR-RES ovarian = system: NCI/ADR-RES ovarian
KM20L2 colon = system: KM20L2 colon
CAKI-1 renal = system: CAKI-1 renal
SN12K1 renal = system: SN12K1 renal
HOP-92 NSCLC = system: HOP-92 NSCLC
SK-OV-3 ovarian = system: SK-OV-3 ovarian
SW-620 colon = system: SW-620 colon
NCI-H23 lung = system: NCI-H23 lung
P388 leukemia = system: P388 leukemia
OVCAR-4 ovarian = system: OVCAR-4 ovarian
M19-MEL melanoma = system: M19-MEL melanoma
SNB-75 CNS = system: SNB-75 CNS
SK-MEL-5 melanoma = system: SK-MEL-5 melanoma
SF-295 CNS = system: SF-295 CNS
U251 CNS = system: U251 CNS
P388/ADR leukemia = system: P388/ADR leukemia
SF-539 CNS = system: SF-539 CNS
CCRF-CEM leukemia = system: CCRF-CEM leukemia
HL-60(TB) leukemia = system: HL-60(TB) leukemia
UACC-257 melanoma = system: UACC-257 melanoma
MALME-3M melanoma = system: MALME-3M melanoma
HCC-2998 colon = system: HCC-2998 colon
SF-268 CNS = system: SF-268 CNS
RXF 393 renal = system: RXF 393 renal
MOLT-4 leukemia = system: MOLT-4 leukemia
RPMI-8226 leukemia = system: RPMI-8226 leukemia
IGROV1 ovarian = system: IGROV1 ovarian
NCI-H460 lung = system: NCI-H460 lung
DMS 273 small cell lung = system: DMS 273 small cell lung
EKVX NSCLC = system: EKVX NSCLC
HOP-62 NSCLC = system: HOP-62 NSCLC
SK-MEL-28 melanoma = system: SK-MEL-28 melanoma
OVCAR-5 ovarian = system: OVCAR-5 ovarian
A549 NSCLC = system: A549 NSCLC
SNB-78 CNS = system: SNB-78 CNS
UACC-62 melanoma = system: UACC-62 melanoma
NCI-H522 lung = system: NCI-H522 lung

SMILES: Cc1cc(C(=O)NCCN(C)C)c2nc3ccccc3cc2c1
- TGI (LOX IMVI melanoma): 3.5 µM
- TGI (OVCAR-8 ovarian): 4.28 µM
- TGI (MCF7 breast): 8 µM
- TGI (XF 498 CNS): 3.69 µM
- TGI (SN12C renal): 7.26 µM
- TGI (DLD-1 colon): 10.9 µM
- TGI (HT29 colon): 5.7 µM
- TGI (HCT-116 colon): 10.1 µM
- TGI (SNB-19 CNS): 6.89 µM
- TGI (HCT-15 colon): 11.4 µM
- TGI (DMS 114 small cell lung): 4.12 µM
- TGI (NCI-H226 lung): 3.33 µM
- TGI (HOP-18 NSCLC): 7.16 µM
- TGI (KM12 colon): 14.1 µM
- TGI (COLO 205 colon): 3.54 µM
- TGI (K-562 leukemia): > 31.3 µM
- TGI (OVCAR-3 ovarian): 8.98 µM
- TGI (SK-MEL-2 melanoma): 7.26 µM
- TGI (UO-31 renal): 3.93 µM
- TGI (A498 renal): 6.37 µM
- TGI (NCI/ADR-RES ovarian): 4.62 µM
- TGI (KM20L2 colon): 4.31 µM
- TGI (CAKI-1 renal): 1.29 µM
- TGI (SN12K1 renal): 2.6 µM
- TGI (HOP-92 NSCLC): 5.27 µM
- TGI (SK-OV-3 ovarian): 8.97 µM
- TGI (SW-620 colon): 8.88 µM
- TGI (NCI-H23 lung): 5.93 µM
- TGI (P388 leukemia): 1.68 µM
- TGI (OVCAR-4 ovarian): 10.6 µM
- TGI (M19-MEL melanoma): 4.42 µM
- TGI (SNB-75 CNS): 11.8 µM
- TGI (SK-MEL-5 melanoma): 3.6 µM
- TGI (SF-295 CNS): 3.91 µM
- TGI (U251 CNS): 10.7 µM
- TGI (P388/ADR leukemia): 2.18 µM
- TGI (SF-539 CNS): 12.7 µM
- TGI (CCRF-CEM leukemia): 9.57 µM
- TGI (HL-60(TB) leukemia): 3.95 µM
- TGI (UACC-257 melanoma): 5.02 µM
- TGI (MALME-3M melanoma): 4.28 µM
- TGI (HCC-2998 colon): 17.7 µM
- TGI (SF-268 CNS): 10.2 µM
- TGI (RXF 393 renal): 4.32 µM
- TGI (MOLT-4 leukemia): > 21.8 µM
- TGI (RPMI-8226 leukemia): 5.71 µM
- TGI (IGROV1 ovarian): 12.6 µM
- TGI (NCI-H460 lung): 2.36 µM
- TGI (DMS 273 small cell lung): 10.8 µM
- TGI (EKVX NSCLC): 0.971 µM
- TGI (HOP-62 NSCLC): 6.38 µM
- TGI (SK-MEL-28 melanoma): 10.7 µM
- TGI (OVCAR-5 ovarian): 8.56 µM
- TGI (A549 NSCLC): 6.81 µM
- TGI (SNB-78 CNS): 14.5 µM
- TGI (UACC-62 melanoma): 5.05 µM

SMILES: O=C1C(=O)c2cc([N+](=O)[O-])ccc2-c2ccc([N+](=O)[O-])cc21
- TGI (LOX IMVI melanoma): 3.82 µM
- TGI (OVCAR-8 ovarian): 1.27 µM
- TGI (MCF7 breast): 2.61 µM
- TGI (XF 498 CNS): 2.64 µM
- TGI (SN12C renal): 2.29 µM
- TGI (DLD-1 colon): 3.95 µM
- TGI (HT29 colon): 22.7 µM
- TGI (HCT-116 colon): 0.885 µM
- TGI (SNB-19 CNS): 4.65 µM
- TGI (HCT-15 colon): 3.02 µM
- TGI (DMS 114 small cell lung): 0.908 µM
- TGI (NCI-H226 lung): 4.09 µM
- TGI (HOP-18 NSCLC): 8.89 µM
- TGI (KM12 colon): 2.66 µM
- TGI (COLO 205 colon): 7.75 µM
- TGI (K-562 leukemia): 2.01 µM
- TGI (OVCAR-3 ovarian): 0.662 µM
- TGI (NCI-H522 lung): 3 µM
- TGI (SK-MEL-2 melanoma): 4.16 µM
- TGI (UO-31 renal): 4.44 µM
- TGI (A498 renal): 3.79 µM
- TGI (NCI/ADR-RES ovarian): 1.03 µM
- TGI (KM20L2 colon): 21.7 µM
- TGI (CAKI-1 renal): 2.14 µM
- TGI (SN12K1 renal): 0.964 µM
- TGI (HOP-92 NSCLC): 1.64 µM
- TGI (SK-OV-3 ovarian): 5.31 µM
- TGI (SW-620 colon): 1.56 µM
- TGI (NCI-H23 lung): 2.77 µM
- TGI (P388 leukemia): 0.52 µM
- TGI (OVCAR-4 ovarian): 0.951 µM
- TGI (M19-MEL melanoma): 0.789 µM
- TGI (SNB-75 CNS): 5.2 µM
- TGI (SK-MEL-5 melanoma): 3.67 µM
- TGI (SF-295 CNS): 3.53 µM
- TGI (U251 CNS): 2.36 µM
- TGI (P388/ADR leukemia): 2.54 µM
- TGI (SF-539 CNS): 1.83 µM
- TGI (CCRF-CEM leukemia): 1.67 µM
- TGI (HL-60(TB) leukemia): 2.06 µM
- TGI (UACC-257 melanoma): 3.19 µM
- TGI (MALME-3M melanoma): 3.84 µM
- TGI (HCC-2998 colon): 5.41 µM
- TGI (SF-268 CNS): 1.93 µM
- TGI (RXF 393 renal): 0.892 µM
- TGI (MOLT-4 leukemia): 1.15 µM
- TGI (RPMI-8226 leukemia): 1.35 µM
- TGI (IGROV1 ovarian): 2.29 µM
- TGI (NCI-H460 lung): 2.65 µM
- TGI (DMS 273 small cell lung): 1.83 µM
- TGI (EKVX NSCLC): 3.94 µM
- TGI (HOP-62 NSCLC): 5.87 µM
- TGI (SK-MEL-28 melanoma): 4.21 µM
- TGI (OVCAR-5 ovarian): 6.4 µM
- TGI (A549 NSCLC): 5.97 µM
- TGI (SNB-78 CNS): 2.66 µM
- TGI (UACC-62 melanoma): 1.54 µM
